The first data set is described as follows: solvent given as SMILES. The conditions noted are these: in CN(C)C=O.
As for `CC(C)(C)c1ccc2oc(-c3ccc(-c4nc5cc(C(C)(C)C)ccc5o4)s3)nc2c1`, the emission maximum came out at 434 nm.

Regarding `CCN(CC)c1ccc(/C=N/C(C#N)=C(C#N)/N=C/c2ccc(N(CC)CC)cc2O)c(O)c1`, the emission maximum stood at 618 nm.

Staying with this data set, now noted: in CO.
In turn, `COc1ccc2n1[B-](F)(F)[N+]1=C(c3ccccc3)C=CC1=C2c1ccc(C)cc1` came in with an emission maximum of 550 nm.

The compound `C/C(=C\c1ccc(C)cc1)c1nc2ccccc2s1` gave an emission maximum of 400 nm.

On to `CCCSC1=[N+]2C(=C(c3ccccc3)c3ccc(SCCC)n3[B-]2(F)F)C=C1SC#N`, for which the emission maximum is 582 nm.

As to `N#CSC1=CC2=C(c3ccccc3)c3ccc(N4CCOCC4)n3[B-](F)(F)[N+]2=C1N1CCOCC1`, the emission maximum worked out at 599 nm.

Compound `CC1(C)[C@@H]2CC[C@]1(C)c1nc3cc(-c4cccs4)ccc3nc12` displayed an emission maximum of 451 nm.

Staying with this data set, now noted: in CS(C)=O.
`Cc1cc(C)c(B(c2ccc(-c3nc4c5ccccc5c5ccccc5c4[nH]3)cc2)c2c(C)cc(C)cc2C)c(C)c1` displayed an emission maximum of 484 nm.

`CCN(CC)c1ccc2cc(/C=C/C(O)=C3\CC/C(=C\c4cc5ccc(N(CC)CC)cc5oc4=O)C3=O)c(=O)oc2c1` yielded an emission maximum of 639 nm.

In turn, `N#Cc1c(/C=C/c2ccc(N(c3ccccc3)c3ccccc3)cc2)cc(-c2ccccc2)cc1N1CCCCC1` showed an emission maximum of 520 nm.

The data set is the same for the next values; noted with them: in Cc1ccccc1.
The compound `Cc1ccc2c(c1)C1(c3ccccc3Oc3ccccc31)c1cc(C)ccc1N2c1ccc(-c2nc(-c3ccccc3)cc(-c3ccccc3)n2)cc1` returned an emission maximum of 451 nm.

`Cc1cc(C)c(B(c2ccc(-c3nc4c5ccccc5c5ccccc5c4[nH]3)cc2)c2c(C)cc(C)cc2C)c(C)c1`: the emission maximum is 435 nm.

Compound `CCN(CC)c1ccc2cc(/C=C/C(O)=C3\CC/C(=C\c4cc5ccc(N(CC)CC)cc5oc4=O)C3=O)c(=O)oc2c1` gave an emission maximum of 570 nm.

As for `COc1ccc2n1[B-](F)(F)[N+]1=C(c3ccccc3)C=CC1=C2c1ccc(C)cc1`, the emission maximum amounted to 558 nm.

On to `CCCCC1(c2ccc(OC)cc2)Nc2ccccc2N=C1c1ccc(OC)cc1` (stereo not drawn), for which the emission maximum is 501 nm.

`CCCCC(CC)CN1C(=O)c2cc(Oc3ccc(OC)cc3)c3c4c(Cl)cc5c6c(cc(Cl)c(c7c(Oc8ccc(OC)cc8)cc(c2c37)C1=O)c64)C(=O)N(c1c(C(C)C)cccc1C(C)C)C5=O` (stereo not drawn) registered an emission maximum of 614 nm.

`CC(C)(C)c1ccc2oc(-c3ccc(-c4nc5cc(C(C)(C)C)ccc5o4)s3)nc2c1` displayed an emission maximum of 434 nm.

Compound `CC1(C)c2ccccc2N(c2ccc(-c3ccc(C#N)c(C#N)n3)cc2)c2ccccc21` returned an emission maximum of 562 nm.

`c1cc2c3cc1c1ccc4c(c1)c1cc(ccc1[C@]15OCCO[C@]41OCCO5)c1ccc4c(c1)c1cc(ccc1[C@]15OCCO[C@]41OCCO5)c1ccc(c3c1)[C@]13OCCO[C@]21OCCO3`: the emission maximum is 343 nm.

Compound `CC1(C)[C@@H]2CC[C@]1(C)c1nc3cc(-c4cccs4)ccc3nc12` displayed an emission maximum of 402 nm.

Staying with this data set, now noted: in ClC(Cl)Cl.
Turning to `CCN(CC)c1ccc2cc(/C=C/C(O)=C3\CC/C(=C\c4cc5ccc(N(CC)CC)cc5oc4=O)C3=O)c(=O)oc2c1`, the emission maximum came to 605 nm.

Turning to `COc1ccc2n1[B-](F)(F)[N+]1=C(c3ccccc3)C=CC1=C2c1ccc(C)cc1`, the emission maximum was found to be 557 nm.

Take `F[B-]1(F)n2c(cc3oc(-c4ccccc4)cc32)C=C2C=c3oc(-c4ccccc4)cc3=[N+]21`: the emission maximum amounted to 661 nm.

The compound `CCCCC1(c2ccc(OC)cc2)Nc2ccccc2N=C1c1ccc(OC)cc1` (stereo not drawn) gave an emission maximum of 507 nm.

The compound `Cc1cccc(C)c1-c1cc2c(C)c3c4cc5nc6ccc7c8c(C)c9cc(-c%10c(C)cccc%10C)c(-c%10c(C)cccc%10C)cc9c(C)c8c7c6nc5cc4c3c(C)c2cc1-c1c(C)cccc1C` came in with an emission maximum of 576 nm.

Take `CC1(C)[C@@H]2CC[C@]1(C)c1nc3cc(-c4cccs4)ccc3nc12`: the emission maximum turned out to be 415 nm.

Staying with this data set, now noted: in ClCCl.
With `Cc1cc(C)c(B(c2ccc(-c3nc4c5ccccc5c5ccccc5c4[nH]3)cc2)c2c(C)cc(C)cc2C)c(C)c1`, the emission maximum turned out to be 454 nm.

Regarding `CCOC(=O)c1c(-c2cc3ccc(OC)cc3oc2=O)nn(-c2ccccc2)c1C(=O)OCC`, the emission maximum came to 421 nm.

Compound `O=S1(=O)c2ccccc2-c2cc(-c3c4ccccc4cc4ccccc34)ccc21` returned an emission maximum of 472.82 nm.

Regarding `C(S/C=C/c1ccc(/C=C/SC=C2CCCC2)cc1)=C1CCCC1`, the emission maximum is reported as 424 nm.

For the compound `COCCOCCOCCOCC(COCCOCCOCCOC)Oc1cc(/C=C/c2ccc(C=C(C#N)C#N)cc2)c(OC(COCCOCCOCCOC)COCCOCCOCCOC)cc1/C=C/c1ccc(C=C(C#N)C#N)cc1`, the emission maximum came to 596 nm.

Regarding `c1ccc(N2N=C(c3ccc4ccc5cccc6ccc3c4c56)CC2c2ccc3ccc4cccc5ccc2c3c45)cc1` (stereo not drawn), the emission maximum came out at 508 nm.

Compound `Cc1cc(C)c(C)c(-c2cc(-c3c(C)c(C)cc(C)c3C)c3ccc4c(-c5c(C)c(C)cc(C)c5C)cc(-c5c(C)c(C)cc(C)c5C)c5ccc2c3c54)c1C` yielded an emission maximum of 412 nm.

On to `CCN(CC)c1ccc(/C=N/C(C#N)=C(C#N)/N=C/c2ccc(N(CC)CC)cc2O)c(O)c1`, for which the emission maximum is on record as 612 nm.

Turning to `CCCSC1=[N+]2C(=C(c3ccccc3)c3ccc(SCCC)n3[B-]2(F)F)C=C1SC#N`, the emission maximum is listed as 586 nm.

On to `N#CSC1=CC2=C(c3ccccc3)c3ccc(N4CCOCC4)n3[B-](F)(F)[N+]2=C1N1CCOCC1`, for which the emission maximum came out at 603 nm.

Take `CC1(C)[C@@H]2CC[C@]1(C)c1nc3cc(-c4cccs4)ccc3nc12`: the emission maximum came to 413 nm.

Staying with this data set, now noted: in Clc1ccccc1Cl.
Regarding `CC(C)(C)c1ccc2oc(-c3ccc(-c4nc5cc(C(C)(C)C)ccc5o4)s3)nc2c1`, the emission maximum came to 437 nm.

The data set is the same for the next values; noted with them: in N#Cc1ccc2c(c1)c1ccccc1n2-c1cccc(-n2c3ccccc3c3ccccc32)c1.
`CC1(C)c2ccccc2N(c2ccc(-c3ccc(C#N)c(C#N)n3)cc2)c2ccccc21` yielded an emission maximum of 550 nm.

The data set is the same for the next values; noted with them: in O.
`O=c1c2cc(Cl)ccc2[nH]c2ccc(COO)cc12`: the emission maximum was 425 nm.

In turn, `CN(C)c1ccc2c(-c3cc(N)ccc3C(=O)[O-])c3ccc(=[N+](C)C)cc-3oc2c1` displayed an emission maximum of 574 nm.

Staying with this data set, now noted: in O=P(c1ccccc1)(c1ccccc1)c1ccc2oc3ccc(P(=O)(c4ccccc4)c4ccccc4)cc3c2c1.
As to `Cc1ccc2c(c1)C1(c3ccccc3Oc3ccccc31)c1cc(C)ccc1N2c1ccc(-c2nc(-c3ccccc3)cc(-c3ccccc3)n2)cc1`, the emission maximum is listed as 452 nm.

Still in this data set, the particulars now being: in c1ccccc1.
For `CC(C)(C)c1ccc2oc(-c3ccc(-c4nc5cc(C(C)(C)C)ccc5o4)s3)nc2c1`, the emission maximum amounted to 434 nm.

(Values after the Deep4Chem optical property database.)
